Source: patent US6953814B2, “Natural insect repellant” (Stratacor, Inc., priority 1997, dated 2005)
Where two headings read alike, the source gives them in different places.

How the values were obtained:
[1] = system: Aedes aegypti mosquitoes; settings: 0.31 mg/cm^2; cited from earlier work
[2] = system: Aedes aegypti mosquitoes; assay: Mosquito repellency on gauze or polyester film (olfactometer); assay type: in vivo; settings: Aedes aegypti, 0.05 h, cotton gauze or polyester film, 0.3 mg/cm^2, 3 minutes after application; read-out: Percent Repellency
Text: Olfactometer: A Fiensod and […] olfactometer, as modified by Bowen and Davis, measured the host-oriented flight response of female mosquitoes to volatile host emanations (Feinsod, F. M., and […]; An olfactometer for measuring host-seeking behavior of female Aedes aegypti (Diptera: Culicidae); J. Med. Entomol., 15: 282-285, 1979). The olfactometer (approximately 38 cm high) consisted of an upper and lower screened chamber with a closure between the chambers (FIG. 8). A fan placed above the upper chamber drew air through the apparatus at approximately 0.2 m/s. A temperature and humidity controlled chamber (5' wide by 6' long by 8' high) was constructed to house the test subject and the olfactometer. Rearing of Mosquitoes: A second environmental chamber, maintained at 27° C. and 80% humidity, was dedicated to the rearing of Aedes aegypti mosquitoes. […] Assays for Attraction of Mosquitoes to Human Subjects: A group of 30 volunteers, consisting of 14 females and 16 males and ranging in age from 24 to 68 years, was selected from the surrounding civilian population. Individuals were tested for their ability to attract Aedes aegypti mosquitoes contained in the olfactometer. Tests were conducted at a temperature of 27° C. and 50% relative humidity. […] A small fan was placed on top of the upper chamber to cause an air flow from the lower chamber to the upper chamber. A trial began when the closure between the upper and lower chamber was opened in the absence of a human host. […] This trial was repeated twice during a test session to obtain three replicates. Two additional test sessions, at time intervals of at least 1 week, were conducted to obtain at least 8-9 replicates for each of 24 subjects. Of the remaining 6 subjects, 3 were tested on two separate occasions for a total of 6 replicates per subject; 3 were tested on one occasion for a total of 3 replicates per subject. A total of 254 tests were conducted. Test compounds were dissolved in acetone or ethanol at a concentration of 150 mg/5 cc. Ethanol solutions of carboxylic acids were prepared just prior to use. Five hundred microliters of these solutions were applied to a 50 cm^2 circular area of a single layer of cotton gauze (Curity Curad gauze, Futuro Inc., Milford, Ohio) or nonwoven polyester film ([…], Inc.). The resultant dose was 0.3 mg/cm^2. […] The cup was attached to the bottom of the olfactometer (FIG. 8) so that air flowed through the stainless steel screen of the cup, through the treated gauze or film, and through the olfactometer. A volunteer's forearm was placed under the cup, so that air drawn into the cup and olfactometer was laden with human skin emanations. Tests were conducted as described in the preceding paragraph, “Assays for attraction of mosquitoes to human subjects”. Percent repellency was determined from the fraction of mosquitoes entering the lower chamber over a seven minute period. This assay is an approximate measure of the intrinsic repellency of a compound. Good repellency in this test is a necessary, but not sufficient, condition for good repellency on skin. Mosquito repellents must produce a vapor over the skin surface to confuse the host seeking behavior of the insect. However, volatilization must not be so great that the repellent action rapidly dissipates. Since volatilization from the skin will be different from an inanimate surface, skin tests are necessary to confirm that a compound will be a practical repellent.

[3] = Vapor pressure; assay type: physicochemical; settings: at 125° C., estimated or extrapolated from literature values
[4] = system: Aedes aegypti mosquitoes; assay: Mosquito repellency on skin (olfactometer, human forearm); assay type: in vivo; settings: for repellency immediately after application to skin, compared to DEET: FIG. 4; for Percent Repellency 2 h: 0.3 mg/cm^2, 2 h after application; for Percent Repellency 4 h: 0.3 mg/cm^2, 4 h after application
Text: Olfactometer: A Fiensod and Spielman olfactometer, as modified by Bowen and Davis, measured the host-oriented flight response of female mosquitoes to volatile host emanations (Feinsod, F. M., and A. Spielman; An olfactometer for measuring host-seeking behavior of female Aedes aegypti (Diptera: Culicidae); J. Med. Entomol., 15: 282-285, 1979). The olfactometer (approximately 38 cm high) consisted of an upper and lower screened chamber with a closure between the chambers (FIG. 8). A fan placed above the upper chamber drew air through the apparatus at approximately 0.2 m/s. A temperature and humidity controlled chamber (5′ wide by 6′ long by 8′ high) was constructed to house the test subject and the olfactometer.
Rearing of Mosquitoes: A second environmental chamber, maintained at 27° C. and 80% humidity, was dedicated to the rearing of Aedes aegypti mosquitoes. Routine shipments of eggs (American Biological Supply, Gainesville, Fla.) were used to maintain a continuous supply of adult 5-10 day old mosquitoes.
Assays for Attraction of Mosquitoes to Human Subjects: A group of 30 volunteers, consisting of 14 females and 16 males and ranging in age from 24 to 68 years, was selected from the surrounding civilian population. Individuals were tested for their ability to attract Aedes aegypti mosquitoes contained in the olfactometer. Tests were conducted at a temperature of 27° C. and 50% relative humidity. For each trial 15 avid adult female Aedes aegypti mosquitoes (5-10 days post-emergence) were placed in the upper chamber. A small fan was placed on top of the upper chamber to cause an air flow from the lower chamber to the upper chamber. A trial began when the closure between the upper and lower chamber was opened in the absence of a human host. The number of mosquitoes entering the lower chamber within a 3 minute period was recorded. The volunteer then placed his or her arm beneath the lower chamber and the number of mosquitoes flying from the upper chamber to the lower chamber was recorded for the time intervals 0-1, 1-3, 3-5 and 5-7 minutes. This trial was repeated twice during a test session to obtain three replicates. Two additional test sessions, at time intervals of at least 1 week, were conducted to obtain at least 8-9 replicates for each of 24 subjects. Of the remaining 6 subjects, 3 were tested on two separate occasions for a total of 6 replicates per subject; 3 were tested on one occasion for a total of 3 replicates per subject. A total of 254 tests were conducted.
Test compounds were dissolved in acetone or ethanol at a concentration of 300 mg/5 cc. Ethanol solutions of carboxylic acids were prepared just prior to use. Three hundred and fifty microliters of these solutions were applied to a 70 cm^2 rectangular area of the forearm. The resultant dose was 0.3 mg/cm^2. The repellent treated area was allowed to dry for 5 minutes prior to test. The treated skin area was placed under the olfactometer and tests were conducted as described in the preceding paragraph, “Assays for attraction of mosquitoes to human subjects”. Percent repellency was determined from the fraction of mosquitoes entering the lower chamber over a seven minute period.
A commercial formulation of DEET (Skintastic, S. C. Johnson, Racine,) was applied to a 100 cm^2 area on the forearm of 1 volunteer (subject 02) to give a dose of 0.3 mg/cm^2 of DEET. A formulation of C8C9C10 (5% octanoic, 5% nonanoic, 5% decanoic in Dow Corning 345 volatile silicone fluid) was applied to a 100 cm^2 on the subject's other arm to give a dose of 0.3 mg/cm^2 total acids. Application sites were placed under the olfactometer at 1, 2 and 4 hours after treatment. Untreated areas on each arm were placed under the olfactometer at the completion of the treated area tests to check the avidity of the mosquitoes. Tests were done on four separate test days. […]

[5] = system: Aedes aegypti mosquitoes; assay: as above; assay type: in vivo; settings: on skin
[6] = system: yellow fever mosquito (Aedes aegypti (L.)); settings: human skin, approximately 2 mg/cm^2, time until two bites; DEET from Gilbert 1957; cited from earlier work
[7] = system: malaria mosquito (Anopheles quadrimaculatus Say); settings: human skin, approximately 2 mg/cm^2, time until two bites; cited from earlier work
[8] = rabbit, in vivo; cited from earlier work
[9] = cited from earlier work
[10] = cited from earlier work; remark: listed apart in the source
[11] = system: Aedes aegypti; settings: King 1954; cited from earlier work

CCCCCCCCCC=CC(=O)O [2-Dodecenoic Acid]
Protection time against Aedes aegypti mosquitoes [1]: 2 h

CCCCCCC=CC(=O)O [2-Nonenoic Acid]
Protection time against Aedes aegypti mosquitoes [1]: 2 h

CCCCCC=CC(=O)O [2-Octenoic acid, 2-Octenoic Acid]
pest or weed control at 0.3 mg/cm2 [2]: 97 ± 5% | Vol. (vapor pressure), (est) [3]: 10.8 mm Hg | repellency immediately after application to skin, compared to DEET [4]: less repellent | Percent Repellency 2 h ([4]; on skin): 29 (1) % | Percent Repellency 4 h ([4]; on skin): 27 (1) %

CCC=CC(=O)O [2-Pentenoic acid, 2-Pentenoic Acid]
pest or weed control at 0.3 mg/cm2 [2]: 100% | Vol. (vapor pressure), (est) [3]: 92 mm Hg

CCCCCC(C)=CC(=O)O [3-Methyl-2-octenoic acid]
pest or weed control at 0.3 mg/cm2 [2]: 95% | Vol. (vapor pressure), (est) [3]: 6 (est) mm Hg | Percent Repellency 2 h ([5]; 0.6 mg/cm^2, 2 h after application): 73% (1) | Percent Repellency 4 h ([5]; 0.6 mg/cm^2, 4 h after application): 40 (1) % | repellency immediately after application to skin, compared to DEET [4]: less repellent | Percent Repellency 2 h ([4]; on skin): 40 ± 5 (3) % | Percent Repellency 4 h ([4]; on skin): 47 ± 21% | Percent Repellency 8 h ([4]; on skin, 0.3 mg/cm^2, 8 h after application): 60%

CCC(C)=CC(=O)O [3-Methyl-2-pentenoic acid, 3-Methyl-2-pentenoic Acid]
pest or weed control at 0.3 mg/cm2 [2]: 65% | Vol. (vapor pressure), (est) [3]: 49.5 mm Hg

CCC(C)CC(=O)O (stereo not drawn) [3-Methylpentanoic Acid]
pest or weed control at 0.3 mg/cm2 [2]: 43 ± 14% | Vol. (vapor pressure), (est) [3]: 49.5 mm Hg

CCCCC/C=C\C/C=C\C/C=C\C/C=C\CCCC(=O)O [Arachidonic Acid]
Protection time against Aedes aegypti mosquitoes [1]: <0.25 h

CCCCCCCCCC(=O)O [Decanoic acid]
Protection time against yellow fever mosquitoes [6]: 300+ min. | pest or weed control at 0.3 mg/cm2 [2]: 93 to 100% | Protection time against malaria mosquitoes [7]: 61 to 90 min | Skin irritation [8]: moderate to severe irritation | Percent Repellency 2 h ([4]; on skin): 53 (1) % | Percent Repellency 4 h ([4]; on skin): 73 (1) %

CCCCCCCCCCCC(=O)O [Dodecanoic acid]
Vol. (vapor pressure), (est) [3]: 0.57 mm Hg

CCCCCCC(=O)O [Ethanthic, ethanthic acid, reference compound]
Protection time against yellow fever mosquitoes [6]: 121 to 180 min | Protection time against malaria mosquitoes [7]: 90+ min.

CCCCC/C=C\C/C=C\CCCCCCCC(=O)O [Linoleic Acid]
Protection time against Aedes aegypti mosquitoes [1]: <0.25 h

CCCCCCCCC(=O)O [Nonanoic acid]
Irritation or sensitization reactions ([9]; in vivo): no irritation or sensitization reactions | Protection time against yellow fever mosquitoes [6]: 180+ min. | pest or weed control at 0.3 mg/cm2 [2]: 93 to 100% | Protection time against malaria mosquitoes [7]: 31 to 60 min | Erythema ([10]; in vivo): Erythema was observed | Skin irritation [8]: moderate irritation | repellency two hours after skin application, ranking ([4]; FIG. 5): highest repellency | Percent Repellency 2 h ([4]; on skin): 66 (1) % | Percent Repellency 4 h ([4]; on skin): 47 (1) %

CCCCCCCC(=O)O [Octanoic acid]
Irritation or sensitization reactions ([9]; 1% in petrolatum, skin of human subjects): no irritation or sensitization reactions | pest or weed control at 0.3 mg/cm2 [2]: 87 ± 1% | Erythema ([10]; repeated applications of 0.5 M propanol solutions, occlusive, human males): Erythema was observed | Skin irritation [8]: moderate to severe irritation | repellency immediately after application to skin, compared to DEET [4]: comparable to DEET | Percent Repellency 2 h ([4]; on skin): 36 (1) % | Percent Repellency 2 h ([4]; on skin, listed as octanoic acid): 36%

CCCCCCCC/C=C\CCCCCCCC(=O)O [Oleic Acid]
Protection time against Aedes aegypti mosquitoes [1]: <0.25 h

CCCCCCCCCCC(=O)O [Undecanoic acid]
Protection time against yellow fever mosquitoes [6]: 300+ min. | pest or weed control at 0.3 mg/cm2 [2]: 93 to 100% | Protection time against malaria mosquitoes [7]: 90+ min. | Vol. (vapor pressure), (est) [3]: 1.5 (est) mm Hg

C=CCCCCCCCCC(=O)O [Undecylenic Acid]
Protection time against Aedes aegypti mosquitoes [1]: 3.5 h

O=C1CCCCN1 [Valerolactam]
pest or weed control at 0.3 mg/cm2 [2]: 20%

O=C(c1ccccc1)c1ccccc1 [benzophenone]
repellent to Aedes aegypti [11]: repellent

CC(C)OC(=O)CCCCC(=O)OC(C)C [diisopropyl adipate]
repellent to Aedes aegypti [11]: repellent
